Values of other authors, collected in US20250127693A1, “Materials for Desensitization and Targeted Drug Delivery to Teeth and Gums” (South Dakota Board of Regents, priority 2023, published 2025).

Legend:
[1] = system: mammalian cells; conditions: prolonged exposures
[2] = system: cancerous cells

## C=CCc1ccc(O)c(OC)c1 [eugenol]
[1]
  concentration at which toxicity for mammalian cells starts: 164 µg/mL
[2]
  concentration at which eugenol inhibits proliferation of cancerous cells: 82 µg/mL
